From patent publication US8637510B2, “Morpholinothiazoles as alpha 7 positive allosteric modulators” (Janssen Pharmaceutica NV, priority 2009, dated 2014)

Biological target: T1, human alpha 7-wt nAChR (Homo sapiens, UniProt P36544)
T1 construct: expressed in transfected cells
Experiment: Ca2+ flux imaging (FDSS) (Protocol B)
Type: cell-based
Conditions: for EC50: potentiation of 100 μM choline, compounds 0.01 μM to 30 μM, read-out: a7-PAM-G_[33]_pEC50 pEC50 (converted); for Emax: efficacy of 100 μM choline defined as 100% in the absence of a PAM, read-out: a7-PAM-G_[33]_Eff_Curve_FI % Efficacy
Protocol: Ca^2+ Flux Imaging (FDSS) (Protocol B)
• Hanks buffered saline solution (HBSS, Invitrogen, Belgium), supplemented with 10 mM HEPES (Invitrogen, Belgium), CaCl2 to a final concentration of 5 mM, 0.1% Bovine serum albumin (Sigma-Aldrich NV, Belgium). b) Calcium-Sensitive Dye—Fluo-4AM • Fluo-4AM (Molecular Probes, USA) was dissolved in DMSO containing 10% Pluronic acid (Molecular Probes, USA) to give a stock solution which was diluted in assay buffer supplemented with 5 mM probenicid (Sigma, Aldrich NV, Belgium) to give a final concentration of 2 μM. c) 384-Well Plates • Black-sided, transparent bottomed 384 well plates coated with poly-D-lysine, PDL pre-coated (Corning, Incorporated, USA) d) Calcium Flux Measurement • A Functional drug screening system (FDSS, Hamamatsu) was used to measure intracellular free-calcium flux signals. Method
Monolayers of human alpha 7-wt nAChR-expressing cells were grown in black-sided, transparent bottomed 384 well plates coated with PDL for 24 hours prior to loading with a fluorescent calcium indicator, fluo-4AM for up to 120 minutes.
PAM activity was detected in real time by applying the compounds to be tested to the loaded cells along with an alpha 7 nicotinic receptor agonist during constant monitoring of cellular fluorescence in a FDSS. Compounds giving peak fluorescent responses greater than the response due to agonist alone, were considered to be alpha 7 nAChR PAMs. The alpha 7 nicotinic receptor agonist was choline, applied at a sub-maximal concentration of 100 μM. In a further setting of the present invention the compounds were applied prior to the alpha 7 nicotinic receptor agonist, in a particular 10 minutes prior to the agonist.
A control response to choline was calculated on each plate from the difference in peak in fluorescence in wells receiving either choline or assay buffer alone. Compounds of the present invention were tested at a concentration range from 0.01 μM to 30 μM. Compounds were considered to have an interesting activity when they potentiated the choline signal at least with 200% when tested at a concentration of 30 μM (the efficacy of 100 μM choline was defined as 100% in the absence of a PAM). An EC50 (or pEC50) was determined as a concentration relating to half the maximal effect, when a clear sigmoidal curve with top plateau was obtained.

T1 sequence (P36544 23-502): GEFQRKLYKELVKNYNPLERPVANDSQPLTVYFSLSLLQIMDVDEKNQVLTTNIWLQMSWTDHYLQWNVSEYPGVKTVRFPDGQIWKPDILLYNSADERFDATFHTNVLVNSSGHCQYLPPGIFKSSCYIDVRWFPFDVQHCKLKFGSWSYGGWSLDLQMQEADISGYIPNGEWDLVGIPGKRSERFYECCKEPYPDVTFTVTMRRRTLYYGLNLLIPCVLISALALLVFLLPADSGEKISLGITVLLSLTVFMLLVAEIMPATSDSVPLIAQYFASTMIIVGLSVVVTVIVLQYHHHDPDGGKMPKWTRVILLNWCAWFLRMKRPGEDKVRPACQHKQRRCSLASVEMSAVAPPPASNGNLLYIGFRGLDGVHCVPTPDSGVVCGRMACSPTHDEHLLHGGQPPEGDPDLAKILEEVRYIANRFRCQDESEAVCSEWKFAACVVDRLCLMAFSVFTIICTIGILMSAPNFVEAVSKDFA

EC50	Emax	SMILES
2750 nM	–	Cc1cc(-c2sc(N3CCOC(C)(C)C3)nc2CNC(=O)C(C)C)cc(C)n1 [Compound 183, N-[[2-(2,2-dimethyl-4-morpholinyl)-5-(2,6-dimethyl-4-pyridinyl)-4-thiazolyl]methyl]-2-methyl-propanamide]
–	26%	Cc1cc(-c2sc(N3C[C@@H](C)O[C@@H](C)C3)nc2CNC(=O)C(F)(F)F)cc(C)n1 [Compound 177, N-[[2-[(2R,6S)-2,6-dimethyl-4-morpholinyl]-5-(2,6-dimethyl-4-pyridinyl)-4-thiazolyl]methyl]-2,2,2-trifluoro-acetamide]
4790 nM	835%	Cc1cc(-c2sc(N3CCOC[C@@H]3C)nc2CNC(=O)c2conc2C)cc(C)n1 [Compound 185, N-[[5-(2,6-dimethyl-4-pyridinyl)-2-[(3S)-3-methyl-4-morpholinyl]-4-thiazolyl]methyl]-3-methyl-4-isoxazolecarboxamide]
309 nM	–	Cc1cc(-c2sc(N3C[C@@H](C)O[C@@H](C)C3)nc2CNC(=O)c2noc3ccccc23)cc(C)n1 [Compound 130, N-[[2-[(2R,6S)-2,6-dimethyl-4-morpholinyl]-5-(2,6-dimethyl-4-pyridinyl)-4-thiazolyl]methyl]-1,2-benzisoxazole-3-carboxamide]
–	247%	Cc1cc(-c2sc(N3C[C@@H](C)O[C@@H](C)C3)nc2CNC(=O)C(C)(C)C)cc(C)n1 [Compound 47, N-[[2-[(2R,6S)-2,6-dimethyl-4-morpholinyl]-5-(2,6-dimethyl-4-pyridinyl)-4-thiazolyl]methyl]-2,2-dimethyl-propanamide]
912 nM	–	Cc1cc(-c2sc(N3CC(C)OC(C)C3)nc2CNC(=O)c2conc2C)cc(C)n1 (racemic) [Compound 68, N-[[2-[2,6-dimethyl-4-morpholinyl]-5-(2,6-dimethyl-4-pyridinyl)-4-thiazolyl]methyl]-3-methyl-4-isoxazolecarboxamide]
224 nM	826%	Cc1cc(-c2sc(N3C[C@@H](C)O[C@@H](C)C3)nc2CNC(=O)C2CC2)cc(C2CC2)n1 [Compound 109, N-[[5-(2-cyclopropy1-6-methyl-4-pyridinyl)-2-[(2R,6S)-2,6-dimethyl-4-morpholinyl]-4-thiazolyl]methyl]-cyclopropanecarboxamide]
813 nM	842%	Cc1cc(-c2sc(N3C[C@@H](C)O[C@@H](C)C3)nc2CNC(=O)c2cc(C)sc2C)cc(C)n1 [Compound 162, N-[[2-[(2R,6S)-2,6-dimethyl-4-morpholinyl]-5-(2,6-dimethyl-4-pyridinyl)-4-thiazolyl]methyl]-2,5-dimethyl-3-thiophenecarboxamide]
148 nM	–	Cc1cc(-c2sc(N3C[C@@H](C)O[C@@H](C)C3)nc2CNC(=O)CCCC(F)(F)F)cc(C)n1 [Compound 145, N-[[2-[(2R,6S)-2,6-dimethyl-4-morpholinyl]-5-(2,6-dimethyl-4-pyridinyl)-4-thiazolyl]methyl]-5,5,5-trifluoro-pentanamide]
1580 nM	951%	COc1nc(C)c(C(=O)NCc2nc(N3C[C@@H](C)O[C@@H](C)C3)sc2-c2cc(C)nc(C)c2)s1 [Compound 158, N-[[2-[(2R,6S)-2,6-dimethyl-4-morpholinyl]-5-(2,6-dimethyl-4-pyridinyl)-4-thiazolyl]methyl]-2-methoxy-4-methyl-5-thiazolecarboxamide]
6170 nM	582%	Cc1cc(-c2sc(N3C[C@@H](C)O[C@@H](C)C3)nc2CNC(=O)[C@@H]2CCCN2C)cc(C)n1 [Compound 52, (2S)-N-[[2-[(2R,6S)-2,6-dimethyl-4-morpholinyl]-5-(2,6-dimethyl-4-pyridinyl)-4-thiazolyl]methyl]-1-methyl-2-pyrrolidinecarboxamide]
1910 nM	991%	Cc1cc(-c2sc(N3CCOC(C)(C)C3)nc2CNC(=O)c2cc(C)on2)cc(C)n1 [Compound 181, N-[[2-(2,2-dimethyl-4-morpholinyl)-5-(2,6-dimethyl-4-pyridinyl)-4-thiazolyl]methyl]-5-methyl-3-isoxazolecarboxamide]
1740 nM	253%	Cc1cc(-c2sc(N3C[C@@H](C)O[C@@H](C)C3)nc2CNC(=O)c2nc(C)oc2C(F)(F)F)cc(C)n1 [Compound 20, N-[[2-[(2R,6S)-2,6-dimethyl-4-morpholinyl]-5-(2,6-dimethyl-4-pyridinyl)-4-thiazolyl]methyl]-2-methyl-5-(trifluoromethyl)-4-oxazolecarboxamide]
72.4 nM	764%	Cc1cc(-c2sc(N3C[C@@H](C)O[C@@H](C)C3)nc2CNC(=O)C(C)C)cc(C2CC2)n1 [Compound 108, N-[[5-(2-cyclopropy1-6-methyl-4-pyridinyl)-2-[(2R,6S)-2,6-dimethyl-4-morpholinyl]-4-thiazolyl]methyl]-2-methyl-propanamide]
407 nM	445%	Cc1cc(-c2sc(N3C[C@@H](C)O[C@@H](C)C3)nc2CNC(=O)c2cccc(Cl)c2)ccn1 [Compound 91, 3-chloro-N-[[2-[(2R,6S)-2,6-dimethyl-4-morpholinyl]-5-(2-methyl-4-pyridinyl)-4-thiazolyl]methyl]-benzamide]
3090 nM	499%	Cc1cc(-c2sc(N3C[C@@H](C)O[C@@H](C)C3)nc2CNC(=O)CC#N)cc(C)n1 [Compound 170, 2-cyano-N-[[2-[(2R,6S)-2,6-dimethyl-4-morpholinyl]-5-(2,6-dimethyl-4-pyridinyl)-4-thiazolyl]methyl]-acetamide]
1230 nM	–	Cc1cc(CC(=O)NCc2nc(N3C[C@@H](C)O[C@@H](C)C3)sc2-c2cc(C)nc(C)c2)on1 [Compound 167, N-[[2-[(2R,6S)-2,6-dimethyl-4-morpholinyl]-5-(2,6-dimethyl-4-pyridinyl)-4-thiazolyl]methyl]-3-methyl-5-isoxazoleacetamide]
912 nM	–	Cc1cc(-c2sc(N3C[C@@H](C)O[C@@H](C)C3)nc2CNC(=O)c2cc(C)nn2C(C)(C)C)cc(C)n1 [Compound 129, 1-(1,1-dimethylethyl)-N-[[2-[(2R,6S)-2,6-dimethyl-4-morpholinyl]-5-(2,6-dimethyl-4-pyridinyl)-4-thiazolyl]methyl]-3-methyl-1H-pyrazole-5-carboxamide]
692 nM	764%	Cc1cc(-c2sc(N3C[C@@H](C)O[C@@H](C)C3)nc2CNC(=O)c2ccoc2)cc(C)n1 [Compound 141, N-[[2-[(2R,6S)-2,6-dimethyl-4-morpholinyl]-5-(2,6-dimethyl-4-pyridinyl)-4-thiazolyl]methyl]-3-furancarboxamide]
49 nM	–	Cc1cc(-c2sc(N3C[C@@H](C)O[C@@H](C)C3)nc2CNC(=O)c2ccc(C(F)(F)F)nc2C)cc(C)n1 [Compound 165, N-[[2-[(2R,6S)-2,6-dimethyl-4-morpholinyl]-5-(2,6-dimethyl-4-pyridinyl)-4-thiazolyl]methyl]-2-methyl-6-(trifluoromethyl)-3-pyridinecarboxamide]
646 nM	–	Cc1cc(-c2sc(N3C[C@@H](C)O[C@@H](C)C3)nc2CNC(=O)c2cc(C(C)(C)C)nn2C)cc(C)n1 [Compound 54, 3-(1,1-dimethylethyl)-N-[[2-[(2R,6S)-2,6-dimethyl-4-morpholinyl]-5-(2,6-dimethyl-4-pyridinyl)-4-thiazolyl]methyl]-1-methyl-1H-pyrazole-5-carboxamide]
51.3 nM	–	Cc1cc(-c2sc(N3C[C@@H](C)O[C@@H](C)C3)nc2CNC(=O)CCC(F)(F)F)cc(C)n1 [Compound 128, N-[[2-[(2R,6S)-2,6-dimethyl-4-morpholinyl]-5-(2,6-dimethyl-4-pyridinyl)-4-thiazolyl]methyl]-4,4,4-trifluoro-butanamide]
1950 nM	–	Cc1cc(-c2sc(N3C[C@@H](C)O[C@@H](C)C3)nc2CNC(=O)c2cc(C)nn2C)cc(C)n1 [Compound 136, N-[[2-[(2R,6S)-2,6-dimethyl-4-morpholinyl]-5-(2,6-dimethyl-4-pyridinyl)-4-thiazolyl]methyl]-1,3-dimethyl-1H-pyrazole-5-carboxamide]
617 nM	699%	Cc1cc(-c2sc(N3C[C@@H](C)O[C@@H](C)C3)nc2CNC(=O)c2cc(C)n(C(C)(C)C)n2)cc(C)n1 [Compound 139, 1-(1,1-dimethylethyl)-N-[[2-[(2R,6S)-2,6-dimethyl-4-morpholinyl]-5-(2,6-dimethyl-4-pyridinyl)-4-thiazolyl]methyl]-5-methyl-1H-pyrazole-3-carboxamide]
